According to US8119614B2, “Substitution derivatives of N6-benzyladenosine, methods of their preparation, their use for preparation of drugs, cosmetic preparations and growth regulators, pharmaceutical preparations, cosmetic preparations and growth regulators containing these compounds” (Ustav Experimentalni Botaniky Akademie Ved Ceske Republiky, priority 2002, dated 2012):

Key:
[1] = system: human malignant melanoma cells G361; assay: In vitro cytotoxic activity, Calcein AM assay, G-361; format: cell-based; conditions: 72 hours, read-out: IC 50 G-361
Text: (§1) One of the parameters used, as the basis for cytotoxicity assays, is the metabolic activity of viable cells. For example, a microtiter assay, which uses the Calcein AM, is now widely used to quantitate cell proliferation and cytotoxicity. For instance, this assay is used in drug screening programs and in chemosensitivity testing. Because only metabolically active cells cleave Calcein AM, these assays detect viable cells exclusively. The quantity of reduced Calcein AM corresponds to the number of vital cells in the culture.
(§2) Human T-lymphoblastic leukemia cell line CEM; promyelocytic HL-60 and monocytic U937 leukemias; breast carcinoma cell lines MCF-7; cervical carcinoma cells HELA; mouse fibroblasts NIH3T3; human erythroleukaemia K562 and human malignant melanoma cells G361 were used for routine screening of compounds. The cells were maintained in Nunc/Corning 80 cm^2 plastic tissue culture flasks and cultured in cell culture medium (DMEM with 5 g/l glucose, 2 mM glutamine, 100 U/ml penicillin, 100 μg/ml streptomycin, 10% fetal calf serum and sodium bicarbonate).
(§3) The cell suspensions that were prepared and diluted according to the particular cell type and the expected target cell density (10^4 cells per well based on cell growth characteristics) were added by pipette (80 μl) into 96/well microtiter plates. Inoculates were allowed a pre-incubation period of 24 hours at 37° C. and 5% CO2 for stabilisation. Four-fold dilutions of the intended test concentration were added at time zero in 20 μl aliquots to the microtiter plate wells. Usually, test compound was evaluated at six 4-fold dilutions. In routine testing, the highest well concentration was 166.7 μM, but it can be the matter of change dependent on the agent. All drug concentrations were examined in duplicates. Incubations of cells with the test compounds lasted for 72 hours at 37° C., in 5% CO2 atmosphere and 100% humidity. At the end of incubation period, the cells were assayed by using the Calcein AM. Ten microliters of the stock solution were pipetted into each well and incubated further for 1 hours. Fluorescence (FD) was measured with the Labsystem FIA Reader Fluoroscan Ascent (UK). The tumour cell survival (GI50) was calculated using the following equitation: GI50=(FDdrug exposed well/mean FDcontrol wells)×100%. The GI50 value, the drug concentration lethal to 50% of the tumour cells, was calculated from the obtained dose response curves (FIG. 3).

[2] = system: promyelocytic HL-60; assay: In vitro cytotoxic activity, Calcein AM assay, HL60; format: cell-based, human; conditions: 72 hours, read-out: IC 50 HL60
Text: as §1, §2, §3

[3] = system: breast carcinoma cell lines MCF-7; assay: In vitro cytotoxic activity, Calcein AM assay, MCF7; format: cell-based, human; conditions: 72 hours, read-out: IC 50 MCF7
Text: as §1, §2, §3

[4] = system: HOS; assay: In vitro cytotoxic activity, Calcein AM assay, HOS; format: cell-based; conditions: 72 hours
[5] = system: Human T-lymphoblastic leukemia cell line CEM; assay: In vitro cytotoxic activity, Calcein AM assay, CEM; format: cell-based; conditions: 72 hours
Text: as §1, §2, §3

[6] = system: human erythroleukaemia K562; assay: In vitro cytotoxic activity, Calcein AM assay, K-562; format: cell-based; conditions: 72 hours, read-out: IC 50 K-562
Text: as §1, §2, §3

[7] = system: mouse fibroblasts NIH3T3; assay: In vitro cytotoxic activity, Calcein AM assay, NIH-3T3; format: cell-based; conditions: 72 hours, read-out: IC 50 NIH-3T3
Text: as §1, §2, §3

[8] = system: Amaranthus caudatus cotyledon/hypocotyl explants; assay: Amaranthus bioassay (betacyanin content); format: in vivo; conditions: for Concentration with highest activity: 48 h dark; for Activity (%) [10^−5 mol · l^−1 BAP = 100%]: at concentration with highest activity
Description: Standard Amaranthus bioassay was performed with several modifications. The seeds of Amaranthus caudatus var. atropurpurea were surface-sterilised in 10% N-chlorobenzenesulfonamide (w/v) for 10 min and washed 5 times in deionized water. They were placed in 15 cm Petri dishes containing paper tissues saturated with deionized water. After 72 h of cultivation at 25° C. in darkness, the roots of the seedlings were cut off. The explants, consisting of two cotyledons and hypocotyls, were placed in 5 cm Petri dishes on two layers of filter paper soaked in 1 ml of incubation medium containing 10 μmol NA2HPO4-KH2PO4, pH 6.8, 5 μmol tyrosine and the cytokinin to be tested. There were 20 explants per dish. The procedure was carried out under a green safe light in a darkroom. After a 48 h of incubation at 25° C. in darkness, betacyanin was extracted by freezing the explants in 4 ml […] acetic acid. The concentration of betacyanin was determined by comparing the absorbance at 537 nm and 620 nm as follows: ΔA=[…]-[…]. From the obtained data, the concentration with highest activity was selected for each compound tested. Relative activity of the compound at this concentration was calculated (Tab. 12). […] The values shown in table 8 are means of five replicates and the entire test was repeated twice. The cytokinins to be tested were dissolved in dimethylsulfoxide (DMSO) and the solution brought up to 10^-3M with distilled water. This stock was further diluted in the respective media used for the biotest to concentrations ranging from 10^-8M to 10^-4M. […] From the data obtained (FIG. 14) the maximum effective concentration of the tested compound was calculated as well as its relative effectiveness at this concentration (Table 12). […]

[9] = system: tobacco callus Nicotiana tabacum L. cv. Wisconsin 38; assay: Growth of cytokinin-dependent tobacco callus; format: cell-based; conditions: for Activity (%) [10^−5 mol · l^−1 BAP = 100%]: callus growth, at concentration with highest activity; for Concentration with highest activity: fresh callus weight after four weeks
Description: Cytokinin-dependent tobacco callus Nicotiana tabacum L. cv. Wisconsin 38 was maintained at 25° C. in darkness on modified Murashige-Skoog medium, containing per 1 liter: 4 μmol nicotinic acid, 2.4 μmol pyridoxine hydrochloride, 1.2 μmol thiamine, 26.6 μmol glycine, 1.37 μmol glutamine, 1.8 μmol myo-inositol, 30 g of sucrose, 8 g of agar, 5.37 μmol α-naphtylacetic acid (NAA) and 0.5 μmol benzylaminopurine (BAP). Subcultivation was carried out every three weeks. Fourteen days before the bioassay, the callus tissue was transferred to the media without 6-benzylaminopurine (BAP). Biological activity was determined from the increase in fresh callus weight after four weeks of cultivation. Five replicates were prepared for each cytokinin concentration and the entire test was repeated twice. From the obtained data, the concentration with highest activity was selected for each compound tested. Relative activity of the compound at this concentration was calculated (Tab. 6). […] The cytokinins to be tested were dissolved in dimethylsulfoxide (DMSO) and the solution brought up to 10^−3M with distilled water. This stock was further diluted in the respective media used for the biotest to concentrations ranging from 10^−8M to 10^−4M.

[10] = system: Triticum aestivum cv. Hereward; assay: Senescence inhibition on winter wheat leaf segments (chlorophyll retention); format: in vivo; conditions: for Concentration with highest activity: chlorophyll retention in excised wheat leaf tips, 96 h dark; for Activity (%) [10^−4 mol · l^−1 BAP = 100%]: chlorophyll retention, at concentration with highest activity
Description: Seeds of winter wheat, Triticum aestivum cv. Hereward, were washed under running water for 24 hours and then sown on vermiculite soaked with Knop's solution. They were placed in the grown chamber at 15° C. with a 16/8 h light period at 50 μmol·m^−2·s^−1. After 7 days, the first leaf was fully developed and the second leaf had started to grow. A tip section of the first leaf, approximately 35 mm long, was removed from 5 seedlings and trimmed slightly to a combined weight of 100 mg. The basal ends of the five leaf tips were placed in the wells of a microtiter polystyrene plate containing 150 μl of a cytokinin solution each. The entire plate was inserted into a plastic box lined with paper tissues soaked in distilled water to prevent leaf sections from drying out. After a 96 h incubation in the dark at 25° C., the leaves were removed and chlorophyll extracted by heating at 80° C. for 10 min in 5 ml of 80% ethanol (v/v). The sample volume was then restored to 5 ml by the addition of 80% ethanol (v/v). The absorbency of the extract was recorded at 665 nm. In addition, chlorophyll extracts from fresh leaves and leaf tips incubated in deionised water were measured. From the obtained data, the concentration with highest activity was selected for each compound tested. Relative activity of the compound at this concentration was calculated (Tab. 10). The activity obtained for 10^−4 M 6-benzylaminopurine (BAP) was postulated as 100%. The values shown are means of five replicates and the whole experiment was repeated twice. The cytokinins to be tested were dissolved in dimethylsulfoxide (DMSO) and the solution brought up to 10^−3M with distilled water. This stock was further diluted in distilled water to concentrations ranging from 10^−8M to 10^−4M.

SMILES	IC50 [1] [µM]	IC50 [2] [µM]	IC50 [3] [µM]	IC50 [4] [µM]	IC50 [5] [µM]	IC50 [6] [µM]	IC50 [7] [µM]	Concentration with highest activity [8]	Activity (%) [10^−5 mol · l^−1 BAP = 100%] [8] [%]	Activity (%) [10^−5 mol · l^−1 BAP = 100%] [9] [%]	Concentration with highest activity [9]	Concentration with highest activity [10]	Activity (%) [10^−4 mol · l^−1 BAP = 100%] [10] [%]
CSc1nc(NCc2cccc(F)c2)c2ncn([C@@H]3O[C@H](CO)[C@@H](O)[C@H]3O)c2n1 [R2 = SCH3,3-fluorobenzylamino]	28	5.2	31	> 167	8.5	7.9	> 167						
COc1cccc(CNc2nc(SC)nc3c2ncn3[C@@H]2O[C@H](CO)[C@@H](O)[C@H]2O)c1 [R2 = SCH3,3-methoxyxybenzylamino]	> 167	8.8	> 167	> 167	16.5	> 167	> 167						
OC[C@H]1O[C@@H](n2cnc3c(NCc4cccc(O)c4)nc(Cl)nc32)[C@H](O)[C@@H]1O [R2 = Cl, 3-hydroxybenzylamino]	> 167	15.9	> 167	> 167	47.8	> 167	> 167						
COc1cccc(CNc2nc(Cl)nc3c2ncn3[C@@H]2O[C@H](CO)[C@@H](O)[C@H]2O)c1 [R2 = Cl, 3-methoxyxybenzylamino, 2-chloro-6-(3-methoxybenzylamino)purine riboside]	> 167	4.1	> 167	> 167	6.5	> 167	> 167						
COc1ccc(O)c(CNc2ncnc3c2ncn3[C@@H]2O[C@H](CO)[C@@H](O)[C@H]2O)c1 [2-hydroxy-5-methoxybenzylamino, 6-(2-hydroxy-5-methoxybenzylamino)purine riboside]	102	0.1	21	> 167	0.2	15.4	> 167						
COc1cccc(CNc2nc(Cl)nc3c2ncn3[C@@H]2O[C@H](CO)[C@@H](O)[C@H]2O)c1O [R2 = Cl, 2-hydroxy-3-methoxybenzylamino]	140	0.1	23	> 167	0.2	17	> 167						
OC[C@H]1O[C@@H](n2cnc3c(NCc4cccc(F)c4)nc(Cl)nc32)[C@H](O)[C@@H]1O [R2 = Cl, 3-fluorobenzylamino]	16	0.9	16	> 167	3	5.3	> 167						
COc1cccc(CNc2nc(N)nc3c2ncn3[C@@H]2O[C@H](CO)[C@@H](O)[C@H]2O)c1 [R2 = NH2,3-methoxyxybenzylamino]	> 167	8.9	> 167	> 167	13.8	> 167	> 167						
COc1ccccc1CNc1nc(Cl)nc2c1ncn2C1OC(CO)C(O)C1O (stereo not drawn) [R2 = Cl, 2-methoxyxybenzylamino]	> 167	1.5	> 167	15.3	2.7	14.5	> 167						
OC[C@H]1O[C@@H](n2cnc3c(NCc4ccc(Br)cc4)ncnc32)[C@H](O)[C@@H]1O [4-bromobenzylamino, 6-(4-bromobenzylamino)purine riboside]		47.4	> 167	> 167	20.6	68.2	> 167	10^−5 mol · l^−1	30 ± 8	15 ± 11	10^−6 mol · l^−1	10^−4 mol · l^−1	76 ± 11
Cc1ccc(CNc2ncnc3c2ncn3[C@@H]2O[C@H](CO)[C@@H](O)[C@H]2O)cc1 [4-methylbenzylamino, 6-(4-methylbenzylamino)purine riboside]		> 167	> 167	> 167	> 167	> 167	> 167	10^−5 mol · l^−1	32 ± 7	95 ± 6	10^−6 mol · l^−1	10^−4 mol · l^−1	55 ± 5
OC[C@H]1O[C@@H](n2cnc3c(NCc4ccccc4Br)ncnc32)[C@H](O)[C@@H]1O [2-bromobenzylamino, 6-(2-bromobenzylamino)purine riboside]		6.6	> 167	> 167	12.3	10	> 167	10^−4 mol · l^−1	147 ± 7	100 ± 4	10^−5 mol · l^−1	10^−5 mol · l^−1	86 ± 19
